The molecules below were run against Transient receptor potential cation channel subfamily V member 1 (Homo sapiens, UniProt Q8NER1) (assay: Antagonist activity at human TRPV1 expressed in CHO cells assessed as inhibition of capsaicin-induced increase in intracellular Ca2+ level by FLIPR assay).
Chain of Transient receptor potential cation channel subfamily V member 1 (Q8NER1 whole entry): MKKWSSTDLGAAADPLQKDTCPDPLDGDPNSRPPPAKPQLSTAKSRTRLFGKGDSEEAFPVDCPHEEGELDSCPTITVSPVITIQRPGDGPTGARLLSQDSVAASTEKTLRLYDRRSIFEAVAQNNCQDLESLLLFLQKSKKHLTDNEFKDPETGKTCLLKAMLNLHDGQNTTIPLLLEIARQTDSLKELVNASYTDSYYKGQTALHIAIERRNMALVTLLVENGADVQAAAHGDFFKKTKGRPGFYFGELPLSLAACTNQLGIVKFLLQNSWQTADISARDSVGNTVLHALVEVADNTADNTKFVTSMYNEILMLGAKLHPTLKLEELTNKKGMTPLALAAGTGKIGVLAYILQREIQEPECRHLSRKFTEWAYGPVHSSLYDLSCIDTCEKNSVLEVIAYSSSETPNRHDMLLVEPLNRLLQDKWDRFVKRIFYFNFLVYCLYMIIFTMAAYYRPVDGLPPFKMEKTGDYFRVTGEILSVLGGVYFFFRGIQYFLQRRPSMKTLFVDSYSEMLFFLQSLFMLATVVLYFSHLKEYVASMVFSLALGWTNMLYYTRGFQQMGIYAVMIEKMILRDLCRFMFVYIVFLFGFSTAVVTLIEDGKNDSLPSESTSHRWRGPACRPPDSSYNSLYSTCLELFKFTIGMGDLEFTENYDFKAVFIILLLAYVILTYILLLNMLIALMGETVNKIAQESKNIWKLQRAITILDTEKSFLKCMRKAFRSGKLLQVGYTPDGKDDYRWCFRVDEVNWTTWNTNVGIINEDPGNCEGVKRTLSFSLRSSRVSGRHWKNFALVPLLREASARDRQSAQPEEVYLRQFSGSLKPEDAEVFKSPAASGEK

| Compound | Ki [nM] |
| --- | --- |
| CC1CC=C(c2nc(C(F)(F)F)ccc2CNC(=O)C(C)c2ccc(NS(C)(=O)=O)c(F)c2)CC1 (stereo not drawn) | 0.3 |
| CC(C(=O)NCc1ccc(C(F)(F)F)nc1C1=C[C@H](C)CCC1)c1ccc(NS(C)(=O)=O)c(F)c1 (stereo partly drawn) | 0.1 |
| CCC1CC=C(c2nc(C(F)(F)F)ccc2CNC(=O)C(C)c2ccc(NS(C)(=O)=O)c(F)c2)CC1 (stereo not drawn) | 0.1 |

From BindingDB's records for doi:10.1016/j.bmcl.2014.05.074 (Seoul National University, 2014)
